What was measured:
Assay type in all cases: cell-based
β2AR = β2AR (Homo sapiens, UniProt P07550); assay: β-arrestin2 recruitment; settings: β2-Tango HTLA; agonist alone or with 100 µM PAGln (Fig 2A, 2C)
β1AR [1] = biological target: T1, β1AR (Homo sapiens, UniProt P08588); assay: cAMP production in β1-HEK293 cells; settings: 100 µM
β1AR [2] = biological target: T1, β1AR; assay: β-arrestin2 recruitment; settings: β1-HTLA cells

T1 sequence (P08588 whole entry): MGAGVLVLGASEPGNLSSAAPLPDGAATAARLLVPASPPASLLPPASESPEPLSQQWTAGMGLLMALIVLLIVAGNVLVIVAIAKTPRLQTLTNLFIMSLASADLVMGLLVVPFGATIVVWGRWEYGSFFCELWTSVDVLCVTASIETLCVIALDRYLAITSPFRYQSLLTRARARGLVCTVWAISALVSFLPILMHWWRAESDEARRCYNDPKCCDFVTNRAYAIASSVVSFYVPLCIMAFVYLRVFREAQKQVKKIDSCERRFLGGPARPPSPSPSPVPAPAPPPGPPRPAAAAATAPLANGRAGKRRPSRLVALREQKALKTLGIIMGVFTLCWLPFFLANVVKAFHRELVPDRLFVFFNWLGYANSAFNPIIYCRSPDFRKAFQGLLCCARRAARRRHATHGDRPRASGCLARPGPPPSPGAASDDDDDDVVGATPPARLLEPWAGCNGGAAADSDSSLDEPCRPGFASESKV
Chain of β2AR (P07550 whole entry): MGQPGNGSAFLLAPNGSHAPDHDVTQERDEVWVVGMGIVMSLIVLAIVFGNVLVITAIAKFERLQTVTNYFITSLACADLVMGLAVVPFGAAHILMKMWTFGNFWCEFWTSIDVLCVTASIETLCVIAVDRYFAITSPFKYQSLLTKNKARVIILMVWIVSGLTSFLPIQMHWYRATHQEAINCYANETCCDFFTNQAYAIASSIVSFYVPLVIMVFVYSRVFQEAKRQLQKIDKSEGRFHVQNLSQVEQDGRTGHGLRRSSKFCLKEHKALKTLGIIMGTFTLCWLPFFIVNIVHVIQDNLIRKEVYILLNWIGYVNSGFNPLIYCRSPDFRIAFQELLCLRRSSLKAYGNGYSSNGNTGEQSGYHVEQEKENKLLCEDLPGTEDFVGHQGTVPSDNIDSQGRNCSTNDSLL

SMILES | Bmax of β-arrestin2 recruitment (β2AR) | cAMP production by compound alone (β1AR [1]) | effect of PAGln on ISO- or NE-induced β-arrestin2 recruitment (β1AR [2])
NC[C@H](O)c1ccc(O)c(O)c1 [NE, norepinephrine] | 3137 RLU |  | 
NC(=O)CC[C@H](NC(=O)Cc1ccccc1)C(=O)O [PAGln, Phenylacetylglutamine] |  | failed to induce cAMP production | failed to show any significant effect
N[C@@H](Cc1ccccc1)C(=O)O [Phe, phenylalanine] |  | failed to induce cAMP production | 

From publication PMC11303761 (Nature Communications, 2024)
